Laboratory results published in patent US4883814A, “1-aryloxy-3-(substituted alkylamino)-2-propanols and use as β-blocker” (Merck & Co., Inc., priority 1988, dated 1989).

Experiments:
β1 -receptor [1] = assay: inhibition of the positive chronotropic actions of isoproterenol in isolated guinea pig atrial preparations; conditions: β1 (atria) versus β2 (trachea), from pA2 values
Method: (§1) The in vitro β-adrenergic blocking properties of the novel compounds of this invention were evaluated in accordance with standard procedures. The interaction with the β1 -receptor was determined via inhibition of the positive chronotropic actions of isoproterenol in isolated guinea pig atrial preparations. β2 potency was determined by using isolated guinea pig tracheal chains contracted with PGF2α and by measuring inhibition of isoproterenol-induced relaxation.

β1 -receptor [2] = target: T1, β1 -receptor (Cavia porcellus, UniProt H0W3H1); assay: as above; conditions: isolated guinea pig atria; vs isoproterenol positive chronotropic action; read-out: pA2 values β1 (atria) (converted)
T1 construct: isolated guinea pig atrial preparations; from tissue; host or cells: isolated guinea pig atria
Method: as §1

β2 = target: T2, β2 (Cavia porcellus, UniProt Q8K4Z4); assay: inhibition of isoproterenol-induced relaxation in isolated guinea pig tracheal chains contracted with PGF2α; conditions: vs isoproterenol-induced relaxation, read-out: pA2 values β2 (trachea) (converted)
T2 construct: isolated guinea pig tracheal chains; from tissue; host or cells: isolated guinea pig tracheal chains
Method: as §1

T1 sequence (H0W3H1 1-470): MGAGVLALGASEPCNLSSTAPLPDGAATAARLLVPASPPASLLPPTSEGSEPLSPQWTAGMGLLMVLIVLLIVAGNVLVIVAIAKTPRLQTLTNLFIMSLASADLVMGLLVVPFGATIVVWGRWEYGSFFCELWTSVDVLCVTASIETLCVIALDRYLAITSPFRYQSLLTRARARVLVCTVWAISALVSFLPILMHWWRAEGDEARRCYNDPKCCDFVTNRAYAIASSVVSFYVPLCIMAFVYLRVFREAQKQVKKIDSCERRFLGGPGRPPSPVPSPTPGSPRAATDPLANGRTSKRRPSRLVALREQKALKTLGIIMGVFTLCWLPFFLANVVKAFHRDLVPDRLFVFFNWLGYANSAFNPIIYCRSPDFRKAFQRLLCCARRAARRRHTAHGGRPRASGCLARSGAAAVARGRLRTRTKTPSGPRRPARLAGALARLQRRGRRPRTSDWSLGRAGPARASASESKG
T2 sequence (Q8K4Z4 whole entry): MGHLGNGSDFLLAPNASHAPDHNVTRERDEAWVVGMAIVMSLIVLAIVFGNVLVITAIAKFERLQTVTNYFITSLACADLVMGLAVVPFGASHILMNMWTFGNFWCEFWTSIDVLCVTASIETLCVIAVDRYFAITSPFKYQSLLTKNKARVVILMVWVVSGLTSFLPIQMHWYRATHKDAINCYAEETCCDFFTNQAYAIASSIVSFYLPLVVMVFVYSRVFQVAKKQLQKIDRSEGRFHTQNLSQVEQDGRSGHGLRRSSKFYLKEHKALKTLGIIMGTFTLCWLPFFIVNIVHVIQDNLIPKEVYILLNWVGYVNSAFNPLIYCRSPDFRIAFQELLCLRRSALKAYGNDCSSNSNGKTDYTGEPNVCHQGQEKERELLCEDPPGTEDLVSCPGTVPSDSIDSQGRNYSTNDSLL

Row | Structure (SMILES) | Kb (β1 -receptor [2]) [nM] | Kb (β2) [nM] | Cardioselectivity ratio (β1 -receptor [1])
1 | N#Cc1ccccc1OCC(O)CNCCN1CCOCC1 (stereo not shown) | 23.4 | 138 | 5.9
2 | N#Cc1ccccc1OCC(O)CNCCc1ccncc1 (stereo not shown) |  |  | 4.1
3 | N#Cc1ccccc1OCC(O)CNCCc1cccnc1 (stereo not shown) | 15.5 | 89.1 | 5.8

Further lines, with some results ahead:

Row | Kb (β1 -receptor [2]) [nM] | Kb (β2) [nM] | Structure (SMILES) | Cardioselectivity ratio (β1 -receptor [1])
4 | 34.7 | 34700 | N#Cc1ccccc1OCC(O)CNCCN1CCNCC1 (stereo not shown) | 1000
5 | 25.7 | 64.6 | N#Cc1ccccc1OCC(O)CNCCc1ccccn1 (stereo not shown) | 2.5
